Measurements: patent EP4417607A1, “HETEROCYCLIC COMPOUND AS SOS1 INHIBITOR AND USES THEREOF” (Nanjing Zaiming Pharmaceutical Co., Ltd., priority 2021, dated 2023)

Experiments:
H358 cells = assay: H358 cell proliferation inhibition (CellTiter-Glo luminescent cell viability assay); format: cell-based; details: Homo sapiens, NCI-H358, 168 h, 7 days
Method in brief: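 H358 cells seeded at 3000 cells/well in RPMI1640/10% FBS, treated with compound for 7 days at 37 °C/5% CO2. Viability read by CellTiter-Glo 3D luminescence, normalised to cell-free (100%) and compound-free (0%) controls; IC50 fitted from 8 concentrations by four-parameter curve.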

[1] = system: p-ERK pathway in H358 cells; assay: p-ERK pathway inhibition in H358 cells (Advanced phospho-ERK (Thr202/Tyr204) cellular kit, HTRF); format: cell-based; details: Homo sapiens, NCI-H358, 1 h compound incubation
Method in brief: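 Serum-starved H358 cells (50000/well, overnight) treated with compound for 1 h at 37 °C, then lysed; phospho-ERK (Thr202/Tyr204) read by HTRF (665/620 nm ratio). Cell-free wells set 100% inhibition, untreated cells 0%; IC50 fitted from 8 concentrations by four-parameter curve.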

Row | Structure (SMILES) | IC50 (H358 cells) | IC50 [1]
1 | Cc1nc(N[C@H](C)c2cccc(C(F)F)c2F)c2cn(C3(CF)CC3)c(=O)c(N3CCC(C)(O)C3)c2n1 (stereo partly drawn) [Example 62, 4-(((R)-1-(3-(difluoromethyl)-2-fluorophenyl)ethyl)amino)-6-(1-(fluoromethyl)cyclopropyl)-8-(3-hydroxy-3-methylpyrrolidin-1-yl)-2-methylpyrido[4,3-d]pyrimidine-7(6H)-one] | 71.6 nM | 133 nM
2 | COc1c(=O)n(C2(CC#N)CC2)cc2c(N[C@H](C)c3cccc(C(F)F)c3F)nc(C)nc12 [Example 32, (R)-2-(1-(4-((1-(3-(difluoromethyl)-2-fluorophenyl)ethyl)amino)-8-methoxy-2-methyl-7-oxopyrido[4,3-d]pyrimidine-6(7H)-yl)cyclopropyl)acetonitrile] | 134 nM | 48.9 nM
3 | CC(=O)N1CCC(Oc2c(=O)n(C3(CF)CC3)cc3c(N[C@H](C)c4cccc(C(F)F)c4F)nc(C)nc23)CC1 [Example 73, (R)-8-((1-acetylpiperidin-4-yl)oxy)-4-((1-(3-(difluoromethyl)-2-fluorophenyl)ethyl)amino)-6-(1-(fluoromethyl)cyclopropyl)-2-methylpyrido[4,3-d]pyrimidine-7(6H)-one] | 71.8 nM | 104 nM
4 | Cc1nc(N[C@H](C)c2cccc(S(F)(F)(F)(F)F)c2)c2cn(N3CCOCC3)c(=O)c(N3CCN(C)CC3)c2n1 [Example 82, (R)-2-methyl-8-(4-methylpiperazin-1-yl)-6-morpholine-4-((1-(3-(pentafluoro-λ^6-sulfanyl)phenyl)ethyl)amino)pyrido[4,3-d]pyrimidine-7(6H)-one] | 30.4 nM | 74.6 nM
5 | Cc1nc(N[C@H](C)c2cccc(C#N)c2C)c2cn(N3CCOCC3)c(=O)c(N3CCN(C)CC3)c2n1 [Example 76, (R)-2-methyl-3-(1-((2-methyl-8-(4-methylpiperazin-1-yl)-6-morpholine-7-oxo-6,7-dihydropyrido[4,3-d]pyrimidin-4-yl)amino)ethyl)benzonitrile] | 108 nM | 113 nM
6 | CC(=O)Nc1c(=O)n(C2(CF)CC2)cc2c(N[C@H](C)c3cccc(C(F)F)c3F)nc(C)nc12 [Example 83, (R)-N-(4-((1-(3-(difluoromethyl)-2-fluorophenyl)ethyl)amino)-6-(1-(fluoromethyl)cyclopropyl)-2-methyl-7-oxo-6,7-dihydropyrido[4,3-d]pyrimidine-8-yl)acetamide] | 90.9 nM | 92 nM
7 | Cc1nc(N[C@H](C)c2cccc(C(F)F)c2F)c2cn(C3(CF)CC3)c(=O)c(N3CCOC[C@@H]3C(C)C)c2n1 [Example 57, 4-(((R)-1-(3-(difluoromethyl)-2-fluorophenyl)ethyl)amino)-6-(1-(fluoromethyl)cyclopropyl)-8-((S)-3-isopropylmorpholino)-2-methylpyrido[4,3-d]pyrimidine-7(6H)-one] | 73.1 nM | 67.5 nM

The remaining molecules from weak to strong by IC50 (H358 cells), led by results:

Row | IC50 (H358 cells) | IC50 [1] | Structure (SMILES)
8 | 33.6 nM | 29.5 nM | [2H]C([2H])([2H])Oc1c(=O)n(C2(CF)CC2)cc2c(N[C@H](C)c3cccc([N+](=O)[O-])c3C)nc(C)nc12 [Example 30, (R)-6-(1-(fluoromethyl)cyclopropyl)-8-(methoxy-d3)-2-methyl-4-((1-(2-methyl-3-nitrophenyl)ethyl)amino)pyrido[4,3-d]pyrimidine-7(6H)-one]
9 | 24.1 nM | 43.7 nM | Cc1nc(N[C@H](C)c2cccc(C(F)F)c2F)c2cn(C3(CF)CC3)c(=O)c(N3CCN(C4CC4)CC3)c2n1 [Example 142, (R)-8-(4-cyclopropylpiperazin-1-yl)-4-((1-(3-(difluoromethyl)-2-fluorophenyl)ethyl)amino)-6-(1-(fluoromethyl)cyclopropyl)-2-methylpyrido[4,3-d]pyrimidine-7(6H)-one]
10 | 12.5 nM | 145 nM | Cc1nc(N[C@H](C)c2cccc(C(F)F)c2F)c2cn(C3(CF)CC3)c(=O)c(N3CCC(N(C)C)CC3)c2n1 [Example 158]
